From US12331040B2 (Karyopharm Therapeutics Inc., priority 2013, dated 2025) come the findings set out here.

Test in all cases: MTT cell proliferation assay
Holding throughout (assay type): cell-based

One experiment deals with MS751 cells. The conditions noted are these: Homo sapiens, MS751, MS751 cells, approximately 64-72 hours incubation. The essentials:
(§1)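 5,000-10,000 cells/well, overnight attach; 8 conc., 1 nM–30 μM; MTT ~4 h; formazan solubilized, OD 490 nm; % inhibition = (1−(ODo/OD))×100 vs neg. control; mostly duplicate, mean±SE.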

The next experiment has as its system 3T3 cells. The conditions noted are these: Mus musculus, NIH3T3, approximately 64-72 hours incubation. The essentials: as §1
In another experiment the test system is Z138 cells. The conditions noted are these: Homo sapiens, Z-138, Z138 cells, approximately 64-72 hours incubation. The essentials: as §1
The mark [1] stands for this setting: read-out: MTT Assay IC50 MS-751.
Where [2] appears, read: read-out: MTT Assay IC50, MS-751.
[3] abbreviates: read-out: MTT Assay IC50, Z-138.

Where two headings read alike, the source gives them in different places.

Turning to `Nc1ccc(/C=C/C(=O)NCc2cc3cc(-c4ccc(F)c(C(=O)N5CCOCC5)c4)cc(C(F)(F)F)c3o2)cn1` [Compound 563, (E)-3-(6-aminopyridin-3-yl)-N-((5-(4-fluoro-3-(morpholine-4-carbonyl)phenyl)-7-(trifluoromethyl)benzofuran-2-yl)methyl)acrylamide], the figures for the IC50 with MS751 cells (setting [1]), with 3T3 cells (read-out: MTT Assay IC50 3T3) and in the experiment on Z138 cells (read-out: MTT Assay IC50 Z-138) were 0.1 to 5 µM, greater than 10 µM and less than 0.1 µM, respectively.
On to `Nc1ccc(/C=C/C(=O)NCc2cc3cc(-c4ncc(C(=O)N5CCNCC5)cn4)cc(Cl)c3o2)cn1` [Compound 649, (E)-3-(6-aminopyridin-3-yl)-N-((7-chloro-5-(5-(piperazine-1-carbonyl)pyrimidin-2-yl)benzofuran-2-yl)methyl)acrylamide], for which the 50% inhibitory concentration (IC50) (commonly the concentration at which inhibition is half-maximal) with MS751 cells (setting [1]) is 0.1 to 5 µM; in the experiment with 3T3 cells (read-out: MTT Assay IC50 3T3) it was greater than 10 µM; in the experiment with Z138 cells (read-out: MTT Assay IC50 Z-138), 0.1 to 5 µM.
Consider `Cc1noc(C)c1/C=C/C(=O)NCc1cc2cc(-c3ccc(C(=O)N4CCOCC4)cc3)cc(Cl)c2o1` [Compound 541, (E)-N-((7-Chloro-5-(4-(morpholine-4-carbonyl)phenyl)benzofuran-2-yl)methyl)-3-(3,5-dimethylisoxazol-4-yl)acrylamide], for which the half-inhibitory concentration (IC50) with MS751 cells (setting [1]) was 0.1 to 5 µM; in the experiment with 3T3 cells (read-out: MTT Assay IC50 3T3), greater than 10 µM; with Z138 cells (read-out: MTT Assay IC50 Z-138), 0.1 to 5 µM.
Consider `Nc1ccc(/C=C/C(=O)NCc2cc3cc(-c4ccc(C(=O)N5CCC(F)(F)CC5)cc4)cc(C(F)(F)F)c3o2)cn1` [Compound 566, (E)-3-(6-aminopyridin-3-yl)-N-((5-(4-(4,4-difluoropiperidine-1-carbonyl)phenyl)-7-(trifluoromethyl)benzofuran-2-yl)methyl)acrylamide], for which the IC50 in the experiment with MS751 cells (setting [1]) is 0.1 to 5 µM; in the experiment on 3T3 cells (read-out: MTT Assay IC50 3T3), greater than 10 µM; in the experiment on Z138 cells (read-out: MTT Assay IC50 Z-138), 0.1 to 5 µM.
`Nc1ccc(/C=C/C(=O)NCc2cc3cc(-c4ncc(C(=O)N5CCC(F)(F)CC5)cc4F)cc(-c4ccc(F)cc4)c3o2)cn1` [Compound 764, (E)-3-(6-aminopyridin-3-yl)-N-((5-(5-(4,4-difluoropiperidine-1-carbonyl)-3-fluoropyridin-2-yl)-7-(4-fluorophenyl)benzofuran-2-yl)methyl)acrylamide]: the IC50 with MS751 cells (setting [2]) was less than 0.1 µM; with 3T3 cells (read-out: MTT Assay IC50, 3T3), 0.1 to 5 µM; in the experiment on Z138 cells (setting [3]), less than 0.1 µM.
As to `O=C(/C=C/c1cccnc1)NCc1cc2cc(-c3ccc(C(=O)N4CCC(F)(F)CC4)cc3)cc(-c3ccc(F)cc3)c2o1` [Compound 729], the IC50 is less than 0.1 µM in the experiment with MS751 cells (setting [2]); less than 0.1 µM in the experiment on 3T3 cells (read-out: MTT Assay IC50, 3T3); less than 0.1 µM in the experiment with Z138 cells (setting [3]).
For `Nc1ccc(/C=C/C(=O)NCc2cc3cc(-c4ccc(C(=O)N5CCC(C(F)(F)F)CC5)cn4)cc(C(F)(F)F)c3o2)cn1` [Compound 615, (E)-3-(6-aminopyridin-3-yl)-N-((7-(trifluoromethyl)-5-(5-(4-(trifluoromethyl)piperidine-1-carbonyl)pyridin-2-yl)benzofuran-2-yl)methyl)acrylamide], the IC50 in the experiment with MS751 cells (setting [1]) was 0.1 to 5 µM; in the experiment with 3T3 cells (read-out: MTT Assay IC50 3T3) it was greater than 10 µM; in the experiment with Z138 cells (read-out: MTT Assay IC50 Z-138) it was 0.1 to 5 µM.
For the compound `Nc1ccc(/C=C/C(=O)NCc2cc3cc(-c4ccc(F)c(C(=O)N5CCOCC5)c4)cc(Cl)c3o2)cn1` [Compound 562, (E)-3-(6-aminopyridin-3-yl)-N-((7-chloro-5-(4-fluoro-3-(morpholine-4-carbonyl)phenyl)benzofuran-2-yl)methyl)acrylamide], the values for the half-inhibitory concentration (IC50) in the experiment on MS751 cells (setting [1]), with 3T3 cells (read-out: MTT Assay IC50 3T3) and with Z138 cells (read-out: MTT Assay IC50 Z-138) were less than 0.1 µM, greater than 10 µM and less than 0.1 µM, respectively.
For `Nc1ccc(/C=C/C(=O)NCc2cc3cc(-c4ccc(C(=O)CN5CCOCC5)cc4)cc(Cl)c3o2)cn1` [Compound 507, (E)-3-(6-aminopyridin-3-yl)-N-((7-chloro-5-(4-(2-morpholinoacetyl)phenyl)benzofuran-2-yl)methyl)acrylamide], the half-maximal inhibitory concentration (IC50) with MS751 cells (setting [1]) is 0.1 to 5 µM; with 3T3 cells (read-out: MTT Assay IC50 3T3), greater than 10 µM; in the experiment with Z138 cells (read-out: MTT Assay IC50 Z-138), 0.1 to 5 µM.
Turning to `Nc1ccc(/C=C/C(=S)NCc2cc3cc(-c4ccc(C(=S)N5CCC(F)(F)CC5)cn4)cc(C(F)(F)F)c3o2)cn1` [Compound 678, (E)-3-(6-aminopyridin-3-yl)-N-((5-(5-(4,4-difluoropiperidine-1-carbonothioyl)pyridin-2-yl)-7-(trifluoromethyl)benzofuran-2-yl)methyl)prop-2-enethioamide], the IC50 in the experiment with MS751 cells (setting [2]) is 0.1 to 5 µM; in the experiment with 3T3 cells (read-out: MTT Assay IC50, 3T3), greater than 10 µM; in the experiment with Z138 cells (setting [3]), 0.1 to 5 µM.
In the case of `Nc1ccc(/C=C/C(=O)NCc2cc3cc(-c4ccc(C(=O)N5CCC(F)(F)CC5)cn4)cc(-c4cccnc4)c3o2)cn1` [Compound 669, (E)-3-(6-aminopyridin-3-yl)-N-((5-(5-(4,4-difluoropiperidine-1-carbonyl)pyridin-2-yl)-7-(pyridin-3-yl)benzofuran-2-yl)methyl)acrylamide], the IC50 is less than 0.1 µM with MS751 cells (setting [2]); 0.1 to 5 µM with 3T3 cells (read-out: MTT Assay IC50, 3T3); less than 0.1 µM in the experiment with Z138 cells (setting [3]).
Take `Cc1noc(C)c1-c1cc(-c2ccc(F)cc2)c2oc(CNC(=O)/C=C/c3ccc(N)nc3)cc2c1` [Compound 694, (E)-3-(6-aminopyridin-3-yl)-N-((5-(3,5-dimethylisoxazol-4-yl)-7-(4-fluorophenyl)benzofuran-2-yl)methyl)acrylamide]: the half-maximal inhibitory concentration (IC50) in the experiment on MS751 cells (setting [2]) is 0.1 to 5 µM; in the experiment with 3T3 cells (read-out: MTT Assay IC50, 3T3), greater than 10 µM; in the experiment on Z138 cells (setting [3]), less than 0.1 µM.
Consider `Nc1ccc(/C=C/C(=O)NCc2cc3cc(-c4ccc(C(=O)N5CCC(F)(F)CC5)cc4F)cc(-c4ccc(F)c(Cl)c4)c3o2)cn1` [Compound 757, (E)-3-(6-aminopyridin-3-yl)-N-((7-(3-chloro-4-fluorophenyl)-5-(4-(4,4-difluoropiperidine-1-carbonyl)-2-fluorophenyl)benzofuran-2-yl)methyl)acrylamide], for which the IC50 is less than 0.1 µM in the experiment on MS751 cells (setting [2]); greater than 10 µM in the experiment with 3T3 cells (read-out: MTT Assay IC50, 3T3); less than 0.1 µM in the experiment with Z138 cells (setting [3]).
In the case of `Nc1ccc(/C=C/C(=O)NCc2cc3cc(-c4ccc(C(=O)N5CCC(F)(F)CC5)cc4)cc(-c4ccc(F)cc4F)c3o2)cn1` [Compound 736, (E)-3-(6-aminopyridin-3-yl)-N-((7-(2,4-difluorophenyl)-5-(4-(4,4-difluoropiperidine-1-carbonyl)phenyl)benzofuran-2-yl)methyl)acrylamide], the IC50 is less than 0.1 µM in the experiment with MS751 cells (setting [2]); 0.1 to 5 µM in the experiment on 3T3 cells (read-out: MTT Assay IC50, 3T3); less than 0.1 µM in the experiment with Z138 cells (setting [3]).
With `Nc1ccc(/C=C/C(=O)NCc2cc3cc(-c4ccc(S(=O)(=O)N5CC(F)C5)cc4)cc(Cl)c3o2)cn1` [Compound 533, (E)-3-(6-aminopyridin-3-yl)-N-((7-chloro-5-(4-(3-fluoroazetidin-1-ylsulfonyl)phenyl)benzofuran-2-yl)methyl)acrylamide], the results for the IC50 in the experiment with MS751 cells (setting [1]), in the experiment with 3T3 cells (read-out: MTT Assay IC50 3T3) and in the experiment with Z138 cells (read-out: MTT Assay IC50 Z-138) were 0.1 to 5 µM, greater than 10 µM and 0.1 to 5 µM, respectively.
Take `CC1(F)CN(C(=O)c2ccc(-c3cc(Cl)c4oc(CNC(=O)/C=C/c5ccc(N)nc5)cc4c3)cc2)C1` [Compound 599, (E)-3-(6-aminopyridin-3-yl)-N-((7-chloro-5-(4-(3-fluoro-3-methylazetidine-1-carbonyl)phenyl)benzofuran-2-yl)methyl)acrylamide]: the figures for the IC50 in the experiment on MS751 cells (setting [1]), in the experiment on 3T3 cells (read-out: MTT Assay IC50 3T3) and in the experiment on Z138 cells (read-out: MTT Assay IC50 Z-138) were 0.1 to 5 µM, 5 to 10 µM and 0.1 to 5 µM, respectively.
Take `CC1(C)CNCCN1C(=O)c1ccc(-c2cc(C(F)(F)F)c3oc(CNC(=O)/C=C/c4ccc(N)nc4)cc3c2)cc1` [Compound 575, (E)-3-(6-aminopyridin-3-yl)-N-((5-(4-(2,2-dimethylpiperazine-1-carbonyl)phenyl)-7-(trifluoromethyl)benzofuran-2-yl)methyl)acrylamide]: the results for the IC50 with MS751 cells (setting [1]), with 3T3 cells (read-out: MTT Assay IC50 3T3) and in the experiment on Z138 cells (read-out: MTT Assay IC50 Z-138) were 0.1 to 5 µM, greater than 10 µM and 0.1 to 5 µM, respectively.
Take `Nc1ccc(/C=C/C(=O)NCc2cc3cc(-c4ccc(OC5CCC(F)(F)CC5)cc4)cc(-c4ccc(F)cc4)c3o2)cn1` [Compound 763, (E)-3-(6-aminopyridin-3-yl)-N-((5-(4-((4,4-difluorocyclohexyl)oxy)phenyl)-7-(4-fluorophenyl)benzofuran-2-yl)methyl)acrylamide]: the concentration for half-maximal inhibition (IC50) was 0.1 to 5 µM with MS751 cells (setting [2]); greater than 10 µM in the experiment with 3T3 cells (read-out: MTT Assay IC50, 3T3); 0.1 to 5 µM in the experiment with Z138 cells (setting [3]).
On to `CC(C)(C)c1cc(-c2ccc(C(=O)N3CCOCC3)cc2)cc2cc(CNC(=O)/C=C/c3ccc(N)nc3)oc12` [Compound 511, (E)-3-(6-aminopyridin-3-yl)-N-((7-tert-butyl-5-(4-(morpholine-4-carbonyl)phenyl)benzofuran-2-yl)methyl)acrylamide], for which the results for the IC50 in the experiment with MS751 cells (setting [1]), in the experiment with 3T3 cells (read-out: MTT Assay IC50 3T3) and in the experiment with Z138 cells (read-out: MTT Assay IC50 Z-138) were 0.1 to 5 µM, greater than 10 µM and 0.1 to 5 µM, respectively.
Take `Nc1ccc(/C=C/C(=O)NCc2cc3cc(-c4ccc(S(=O)(=O)N5CC[C@H](F)C5)cc4)cc(Cl)c3o2)cn1` [Compound 643, (S,E)-3-(6-aminopyridin-3-yl)-N-((7-chloro-5-(4-(3-fluoropyrrolidin-1-ylsulfonyl)phenyl)benzofuran-2-yl)methyl)acrylamide]: the IC50 in the experiment on MS751 cells (setting [1]) was 0.1 to 5 µM; with 3T3 cells (read-out: MTT Assay IC50 3T3), greater than 10 µM; in the experiment on Z138 cells (read-out: MTT Assay IC50 Z-138), 0.1 to 5 µM.
As for `Nc1ccc(/C=C/C(=O)NCc2cc3cc(-c4ccc(C(=O)N5CCC(F)(F)CC5)cc4)cc(-c4ccc(C(F)(F)F)cc4)c3o2)cn1` [Compound 733, (E)-3-(6-aminopyridin-3-yl)-N-((5-(4-(4,4-difluoropiperidine-1-carbonyl)phenyl)-7-(4-(trifluoromethyl)phenyl)benzofuran-2-yl)methyl)acrylamide], the 50% inhibitory concentration (IC50) with MS751 cells (setting [2]) was 0.1 to 5 µM; with 3T3 cells (read-out: MTT Assay IC50, 3T3) it was greater than 10 µM; in the experiment with Z138 cells (setting [3]) it was 0.1 to 5 µM.
